Experimental data taken from ChEMBL document CHEMBL1128857.

Target: T1, Xaa-Pro dipeptidase (Homo sapiens) (UniProt P12955)
T1 sequence (whole entry): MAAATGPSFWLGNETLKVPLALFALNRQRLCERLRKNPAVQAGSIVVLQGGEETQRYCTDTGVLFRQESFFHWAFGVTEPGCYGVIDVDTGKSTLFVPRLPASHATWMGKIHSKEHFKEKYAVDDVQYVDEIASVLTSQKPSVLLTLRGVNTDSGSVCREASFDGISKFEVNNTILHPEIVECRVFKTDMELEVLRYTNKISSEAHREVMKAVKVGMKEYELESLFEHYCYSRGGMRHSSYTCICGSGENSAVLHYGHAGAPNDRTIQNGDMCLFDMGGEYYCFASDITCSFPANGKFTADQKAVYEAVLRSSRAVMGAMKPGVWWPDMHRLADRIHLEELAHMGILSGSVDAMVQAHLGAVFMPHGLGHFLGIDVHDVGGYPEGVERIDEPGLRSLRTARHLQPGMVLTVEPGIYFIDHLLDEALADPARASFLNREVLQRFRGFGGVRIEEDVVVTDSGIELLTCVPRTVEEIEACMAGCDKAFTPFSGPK
Description: Inhibitory constant for inhibition of prolidase in the second phase of biphasic inhibition

In the case of `C=C(OP(=O)(O)O)C(=O)O`, the Ki' is reported as 240 µM.
